From patent US20230203041A1, “ANTAGONISTS OF THE ADENOSINE A2A RECEPTOR” (AdoRx Therapeutics Limited, priority 2020, published 2023)

Key:
human PBMCs = test: CD3/CD28 stimulated IL-2 release NECA reversal assay in human PBMCs; assay type: cell-based; conditions: PBMC, CD3/CD28 antibody stimulated, 1 uM NECA, 24 hours, IL-2 in culture supernatant;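 also: dose-response as % inhibition where 100% equals no-NECA control wells with CD3/CD28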
Description: Blood is drawn from healthy volunteers using sodium citrate as the anticoagulant (0.3% final concentration). After centrifugation of the blood over Histopaque-1077, PBMCs are collected from the Histopaque/plasma interface and washed twice in PBS (300 g for 10 mins at room temp). Cells are plated at 50,000 cells/well in 150 μl RPMI/10% FCS in 96-well cell culture plates that have been precoated with 1 ug/ml CD3 antibody. 50 μl diluted compound mix is added to the cells, to obtain final concentrations of 1 ug/ml CD28 antibody, 1 uM NECA and 0.003-10 μM adenosine receptor antagonist. Assay plates are incubated for 24 hours at 37° C. in a humidified incubator. Culture supernatant is tested for IL-2 levels using the human IL-2 Tissue Culture Kit (Meso Scale Discovery).

[1] = target: T1, human Adenosine A1 receptor (Homo sapiens, UniProt P30542); test: Adenosine receptor TR-FRET binding assay (CA200645 displacement), A1
T1 sequence (P30542 1-326): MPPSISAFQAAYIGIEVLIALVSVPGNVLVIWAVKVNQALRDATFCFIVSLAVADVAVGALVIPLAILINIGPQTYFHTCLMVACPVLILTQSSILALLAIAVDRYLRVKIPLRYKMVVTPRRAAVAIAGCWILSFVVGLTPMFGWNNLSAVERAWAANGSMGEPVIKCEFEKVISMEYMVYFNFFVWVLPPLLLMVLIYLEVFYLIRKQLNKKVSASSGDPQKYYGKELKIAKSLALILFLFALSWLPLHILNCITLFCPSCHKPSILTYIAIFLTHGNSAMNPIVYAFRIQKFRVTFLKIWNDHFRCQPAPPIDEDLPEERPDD

[2] = test system: CD8+ T cells in human whole blood; test: Measurement of pCREB in CD8+ T cells in human whole blood; assay type: cell-based; conditions: T-cell, 1 h; heparinised human whole blood, rolipram, 3 μM NECA, 60 min, phospho-CREB in CD8+ T cells by FACS
Description: Heparinised human whole blood was pre-incubated at 37° C. with serial dilutions of A2a antagonists for 20 min. and the phosphodiesterase inhibitor rolipram to amplify the pCREB response. The adenosine receptor agonist NECA is then added at a final concentration of 3 μM and following a 60 min incubation the blood is fixed and red blood cells lysed. White blood cells are isolated, permeabilized and stained with directly conjugated fluorescent antibodies to phospho-CREB (Alexa Fluor 488) and CD8 (Alexa Fluor 647) and the level of phospho-CREB in CD8+ T cells is measured by FACS using a BD Accuri C6 Flow Cytometer.

[3] = target: T2, human Adenosine A2a receptor (Homo sapiens, UniProt P29274); test: Adenosine receptor TR-FRET binding assay (CA200645 displacement), A2a; conditions: 100 nM CA200645, CHO cell membranes, 2 hours at room temperature
T2 construct: expressed in transfected cells; host or cells: CHO cell membranes

[4] = target: T3, human Adenosine A2b receptor (Homo sapiens, UniProt P29275); test: Adenosine receptor TR-FRET binding assay (CA200645 displacement), A2b; conditions: 30 nM CA200645, CHO cell membranes, 2 hours at room temperature
T3 construct: expressed in transfected cells; host or cells: CHO cell membranes
T3 sequence (P29275 1-332): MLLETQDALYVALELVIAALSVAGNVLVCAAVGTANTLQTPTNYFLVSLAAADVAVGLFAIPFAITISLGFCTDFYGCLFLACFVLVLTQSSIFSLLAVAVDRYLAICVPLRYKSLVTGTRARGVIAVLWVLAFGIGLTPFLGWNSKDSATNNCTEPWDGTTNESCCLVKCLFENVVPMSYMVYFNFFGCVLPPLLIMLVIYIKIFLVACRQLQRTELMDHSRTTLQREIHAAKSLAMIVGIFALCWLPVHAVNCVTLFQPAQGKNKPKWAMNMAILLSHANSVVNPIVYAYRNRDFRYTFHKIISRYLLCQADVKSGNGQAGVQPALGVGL

[5] = target: T4, human Adenosine A3 receptor (Homo sapiens, UniProt P0DMS8); test: Adenosine receptor TR-FRET binding assay (CA200645 displacement), A3
T4 sequence (P0DMS8 1-318): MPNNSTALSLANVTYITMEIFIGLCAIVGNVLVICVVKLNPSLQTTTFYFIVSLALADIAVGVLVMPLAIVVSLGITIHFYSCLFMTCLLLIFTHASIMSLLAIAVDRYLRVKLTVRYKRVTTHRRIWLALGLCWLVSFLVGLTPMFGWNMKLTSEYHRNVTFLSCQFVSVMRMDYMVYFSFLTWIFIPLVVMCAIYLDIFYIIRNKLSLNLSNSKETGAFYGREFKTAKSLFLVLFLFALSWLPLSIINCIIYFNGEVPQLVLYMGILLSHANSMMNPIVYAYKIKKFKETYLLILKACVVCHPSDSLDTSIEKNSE

T2 sequence (P29274 whole entry): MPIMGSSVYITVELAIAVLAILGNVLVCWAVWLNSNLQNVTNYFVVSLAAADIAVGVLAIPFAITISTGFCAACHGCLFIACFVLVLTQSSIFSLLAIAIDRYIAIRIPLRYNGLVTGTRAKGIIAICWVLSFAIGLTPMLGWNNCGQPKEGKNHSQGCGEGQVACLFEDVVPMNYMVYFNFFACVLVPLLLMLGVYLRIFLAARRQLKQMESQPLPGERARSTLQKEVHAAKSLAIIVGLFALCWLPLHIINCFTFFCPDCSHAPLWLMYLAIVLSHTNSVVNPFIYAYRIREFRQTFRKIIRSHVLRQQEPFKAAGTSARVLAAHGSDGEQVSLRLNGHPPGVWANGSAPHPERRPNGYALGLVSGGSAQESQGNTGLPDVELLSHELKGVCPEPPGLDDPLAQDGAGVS

N#Cc1cccc(-c2nn3ccc(N)nc3c2-c2ccncc2)c1 [Example 1, 3-[5-Amino-3-(4-pyridyl)pyrazolo[1,5-a]pyrimidin-2-yl]benzonitrile]
IC50 (human PBMCs): 305 nM | Ki [1]: 3 nM | IC50 [2]: 2010 nM | Ki [3]: 2.1 nM | Ki [4]: 2 nM

Cc1cc(-c2c(-c3cccc(C#N)c3)nn3ccc(N)nc23)cc(Cl)n1 [Example 1.4, 3-[5-Amino-3-(2-chloro-6-methyl-4-pyridyl)pyrazolo[1,5-a]pyrimidin-2-yl]benzonitrile]
Ki [5]: > 1000 nM | IC50 (human PBMCs): 37 nM | Ki [1]: 66 nM | IC50 [2]: 590 nM | Ki [3]: 2.6 nM | Ki [4]: 4 nM

Cc1cc(-c2c(-c3cccc(C#N)c3)nn3ccc(N)nc23)cc(C)n1 [Example 1.6, 3-[5-amino-3-(2,6-dimethyl-4-pyridyl)pyrazolo[1,5-a]pyrimidin-2-yl]benzonitrile]
Ki [5]: > 1000 nM | IC50 (human PBMCs): 57 nM | Ki [1]: 37 nM | IC50 [2]: 250 nM | Ki [3]: 2.2 nM | Ki [4]: 9 nM

Cc1cc(-c2c(-c3cccc(C#N)c3)nn3ccc(NCC(C)(C)O)nc23)cc(Cl)n1 [Example 2, 3-[3-(2-Chloro-6-methyl-4-pyridyl)-5-[(2-hydroxy-2-methyl-propyl)amino]pyrazolo[1,5-a]pyrimidin-2-yl]benzonitrile]
Ki [5]: > 1000 nM | IC50 (human PBMCs): 84 nM | Ki [1]: 366 nM | IC50 [2]: 420 nM | Ki [3]: 3.9 nM | Ki [4]: 67 nM

Cc1cc(-c2c(-c3cccc(C#N)c3)nn3ccc(NC45CC(O)(C4)C5)nc23)cc(Cl)n1 [Example 2.1]
Ki [5]: > 1000 nM | IC50 (human PBMCs): 12 nM | Ki [1]: 21 nM | IC50 [2]: 1440 nM | Ki [3]: 0.4 nM | Ki [4]: 3 nM

Cc1cc(-c2c(-c3cccc(C#N)c3)nn3ccc(N4CCOC[C@H]4C(=O)O)nc23)cc(Cl)n1 [Example 2.3]
Ki [5]: 1280 nM | IC50 (human PBMCs): 12 nM | Ki [1]: 21 nM | IC50 [2]: 1250 nM | Ki [3]: 0.6 nM | Ki [4]: 4 nM

CCN1CCC(Nc2ccn3nc(-c4cccc(C#N)c4)c(-c4cc(C)nc(Cl)c4)c3n2)CC1 [Example 2.4]
Ki [5]: > 1000 nM | IC50 (human PBMCs): 32 nM | Ki [1]: 53 nM | IC50 [2]: 2820 nM | Ki [3]: 0.7 nM | Ki [4]: 2 nM

Cc1cc(-c2c(-c3cccc(C#N)c3)nn3ccc(NCC4(O)COC4)nc23)cc(Cl)n1 [Example 2.8]
Ki [5]: > 1000 nM | IC50 (human PBMCs): 41 nM | Ki [1]: 62 nM | IC50 [2]: 610 nM | Ki [3]: 1.3 nM | Ki [4]: 3 nM

Cc1cc(-c2c(-c3cccc(C#N)c3)nn3ccc(NCCC(C)(C)O)nc23)cc(Cl)n1 [Example 2.9]
Ki [5]: > 1000 nM | IC50 (human PBMCs): 19 nM | Ki [1]: 31 nM | IC50 [2]: 70 nM | Ki [3]: 1.4 nM | Ki [4]: 19 nM

Cc1cc(-c2c(-c3cccc(C#N)c3)nn3ccc(N[C@H]4C[C@@H](O)C4)nc23)cc(Cl)n1 [Example 2.10]
Ki [5]: 1550 nM | IC50 (human PBMCs): 48 nM | Ki [1]: 119 nM | IC50 [2]: 1190 nM | Ki [3]: 1.4 nM | Ki [4]: 10 nM

Cc1cc(-c2c(-c3cccc(C#N)c3)nn3ccc(NC4CCN(S(C)(=O)=O)CC4)nc23)cc(Cl)n1 [Example 2.11]
Ki [5]: > 1000 nM | IC50 (human PBMCs): 5 nM | Ki [1]: 176 nM | IC50 [2]: 1330 nM | Ki [3]: 1.5 nM | Ki [4]: 34 nM

Cc1cc(-c2c(-c3cccc(C#N)c3)nn3ccc(N4CC5CCC(C4)O5)nc23)cc(Cl)n1 [Example 2.12]
Ki [5]: 2330 nM | IC50 (human PBMCs): 32 nM | Ki [1]: 87 nM | IC50 [2]: 4190 nM | Ki [3]: 1.5 nM | Ki [4]: 22 nM

Cc1cc(-c2c(-c3cccc(C#N)c3)nn3ccc(N4CCO[C@@H](C(=O)O)C4)nc23)cc(Cl)n1 [Example 2.24]
IC50 (human PBMCs): 92 nM | Ki [1]: 255 nM | IC50 [2]: 2760 nM | Ki [3]: 6.9 nM | Ki [4]: 58 nM

Cc1cc(-c2c(-c3cccc(C#N)c3)nn3ccc(N[C@H](C)CO)nc23)cc(Cl)n1 [Example 3.3]
Ki [5]: > 1000 nM | IC50 (human PBMCs): 1 nM | IC50 [2]: 210 nM | Ki [3]: 0.3 nM | Ki [4]: 2 nM

COCC(C)(C#N)NC(=O)c1ccn2nc(-c3cccc(C#N)c3)c(-c3cc(C)nc(Cl)c3)c2n1 (stereo not shown) [Example 6.11, 3-(2-Chloro-6-methyl-4-pyridyl)-N-(1-cyano-2-methoxy-1-methyl-ethyl)-2-(3-cyanophenyl)pyrazolo[1,5-a]pyrimidine-5-carboxamide]
Ki [5]: 379 nM | Ki [1]: 32 nM | IC50 [2]: 20 nM | Ki [3]: 0.1 nM | Ki [4]: 3 nM

Cc1cc(-c2c(-c3cccc(C#N)c3)nn3ccc(C(=O)NC(C)(C)C)nc23)cc(N)n1 [Example 91, 3-(2-Amino-6-methyl-4-pyridyl)-N-tert-butyl-2-(3-cyanophenyl)pyrazolo [1,5-a]pyrimidine-5-carboxamide]
Ki [5]: 1040 nM | Ki [1]: 102 nM | IC50 [2]: 340 nM | Ki [3]: 0.2 nM | Ki [4]: 71 nM

Cc1cc(-c2c(-c3cccc(C#N)c3)nn3ccc(C(=O)N[C@H](C)C(C)(C)O)nc23)cc(C)n1 [Example 92.10]
Ki [5]: > 1000 nM | Ki [1]: 591 nM | IC50 [2]: 150 nM | Ki [3]: 0.5 nM | Ki [4]: 117 nM

Cc1cc(-c2c(-c3cccc(C#N)c3)nn3ccc(C(=O)NOCC(C)(C)O)nc23)cc(C)n1 [Example 92.11]
Ki [5]: > 1000 nM | Ki [1]: 217 nM | IC50 [2]: 2100 nM | Ki [3]: 1.5 nM | Ki [4]: 21 nM

Cc1cc(-c2c(-c3cccc(C#N)c3)nn3ccc(C(=O)N[C@@H]4COC[C@]4(C)O)nc23)cc(C)n1 [Example 92.12]
Ki [5]: > 1000 nM | Ki [1]: 274 nM | IC50 [2]: 150 nM | Ki [3]: 0.8 nM | Ki [4]: 44 nM

Cc1cc(-c2c(-c3cccc(C#N)c3)nn3ccc(C(=O)N[C@@H]4COC[C@@]4(C)O)nc23)cc(C)n1 [Example 92.13]
Ki [5]: > 1000 nM | Ki [1]: 282 nM | IC50 [2]: 100 nM | Ki [3]: 1 nM | Ki [4]: 101 nM

Cc1cc(-c2c(-c3cccc(C#N)c3)nn3ccc(C(=O)NCC4CCCN(C)C4=O)nc23)cc(C)n1 (stereo not shown) [Example 92.14]
Ki [5]: > 1000 nM | Ki [1]: 79 nM | IC50 [2]: 60 nM | Ki [3]: 0.4 nM | Ki [4]: 10 nM

Cc1cc(-c2c(-c3cccc(C#N)c3)nn3ccc(C(=O)NCC4(C)COC(=O)N4)nc23)cc(C)n1 (stereo not shown) [Example 92.21]
Ki [5]: > 1000 nM | Ki [1]: 288 nM | IC50 [2]: 110 nM | Ki [3]: 0.7 nM | Ki [4]: 17 nM

Cc1cc(-c2c(-c3cccc(C#N)c3)nn3ccc(C(=O)N[C@H]4CC[C@](C)(O)CC4)nc23)cc(C)n1 [Example 92.22]
Ki [5]: > 1000 nM | Ki [1]: 204 nM | IC50 [2]: 370 nM | Ki [3]: 0.6 nM | Ki [4]: 29 nM

Cc1cc(-c2c(-c3cccc(C#N)c3)nn3ccc(C(=O)N[C@H]4C[C@@](C)(O)C4)nc23)cc(C)n1 [Example 92.24]
Ki [5]: > 1000 nM | Ki [1]: 347 nM | IC50 [2]: 330 nM | Ki [3]: 1.3 nM | Ki [4]: 23 nM

Cc1cc(-c2c(-c3cccc(C#N)c3)nn3ccc(C(=O)N[C@H]4CN(C)C[C@H]4O)nc23)cc(C)n1 [Example 92.34]
Ki [5]: > 1000 nM | Ki [1]: 428 nM | IC50 [2]: 140 nM | Ki [3]: 1.5 nM | Ki [4]: 32 nM
